We go through one molecule from publication PMC2915760 (Bioorganic & medicinal chemistry, 2010).

pKd: −log10 of the molar value.

In the assay the target is T1, Lyp-CCPGCC (lymphoid-specific protein tyrosine phosphatase, PTPN22, engineered insertion mutant) (Homo sapiens, UniProt Q9Y2R2, INS199CCPGCC).
T1 sequence (Q9Y2R2 with tags, fused parts or gaps INS199CCPGCC): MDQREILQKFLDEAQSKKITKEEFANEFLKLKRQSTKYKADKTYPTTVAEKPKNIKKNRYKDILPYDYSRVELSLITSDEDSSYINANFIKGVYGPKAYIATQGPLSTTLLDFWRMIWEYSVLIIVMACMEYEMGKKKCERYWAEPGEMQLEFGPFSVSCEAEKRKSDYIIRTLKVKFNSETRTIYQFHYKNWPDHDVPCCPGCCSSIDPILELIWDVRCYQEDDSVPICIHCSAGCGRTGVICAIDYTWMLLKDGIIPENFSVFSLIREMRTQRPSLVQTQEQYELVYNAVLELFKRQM
The assay is described as follows: FlAsH fluorescence titration with purified Lyp-CCPGCC. In kind it is binding.

In the case of `O=C1OC2(c3ccccc31)c1ccc(O)c([As]3SCCS3)c1Oc1c2ccc(O)c1[As]1SCCS1` [FlAsH], the pKd – broadly, −log10 of the Kd, conventionally taken in molar units – was 7.17.
